Source: patent publication US4072574A, “System for in vitro assay for mutagenicity and/or carcinogenicity of chemicals or other exogenous agents” (priority 1976, dated 1978)

Assays:
AMV DNA polymerase = test: Fidelity of in vitro DNA synthesis (error frequency) with AMV DNA polymerase copying synthetic polynucleotide templates
Excerpt: In this invention, the ability of carcinogens to decrease the fidelity of in vitro DNA synthesis will be used to screen for carcinogenic or mutagenic agents. The system uses synthetic polynucleotides of defined composition which may be copied in the test tubes with procaryotic, eucaryotic or viral DNA polymerases. The use of synthetic polynucleotides of defined composition allows the measurement of the simultaneous incorporation of the correct, complementary nucleotide and an incorrect, non-complementary nucleotide. The correct nucleotide is labeled with [α-^32 P] of low specific activity and the incorrect nucleotide is labeled with [^3 H] of high specific activity. Through this double labeled reaction it is possible to determine the simultaneous incorporation of both nucleotides and thus to determine an error frequency. The error frequency may be defined as the ratio of the incorrect/correct nucleotide incorporation. Agents which increase this error frequency may be scored as positive. […] Agents which score positive would be checked using different templates to underscore the positive results. In this system different polymerases will be used as well as different templates. One would expect that most carcinogens would change the fidelity of DNA synthesis with different polymerases as well as with different templates though this need not be the case.
Each assay will consist of a polymerase, a polynucleotide template that only contains one or two nucleotides, a complementary nucleotide and a non-complementary nucleotide as well as magnesium. Both of the nucleotides will be labeled by radioactive precursors and the ratio between the two is to be used for a measure of error frequency in the system. In instances where a template requires two complementary nucleotides, only one will be radioactively labeled.
Reactions (total volume 0.05 ml) which measured complementary nucleotide incorporation contained 50 mM Tris-HCL (pH 8.0), 20 mM KCl, 5 mM dithiothreitol, 5 mM MgCl2, 2μg BSA, […] [α-^32 P] -dTTP (60 dpm/pmole), 1μg poly (A).oligo (dT) (1:1.5 mass ratio), and 0.45 μg of AMV DNA polymerase. For simultaneous quantitation of complementary and non-complementary nucleotide incorporation each reaction was modified to contain 26μM [α-^32 P]dTTP (12 dpm/pmole) and 23μM [^3 H]-dCTP (50,000 dpm/pmole). […] Metals were added directly to the reaction mixture as aqueous solutions of chloride salts. All reactions were incubated for 60 min. at 37° C. Incorporation of radioactive nucleotides into an acid-insoluble and alkali-resistant product was determined by using the precipitation-solubilization procedure as described by Battula and Loeb. All experiments were performed in triplicate and the averages were determined.
In order to determine the effect of different metals on the accuracy of DNA replication, metal cations were added as chloride salts directly to the polymerase reaction. In these experiments, poly (A).oligo (dT) was the template-primer and the simultaneous incorporation of complementary nucleotide, [α-^32 P]-dTMP, and the non-complementery nucleotide, [^3 H]-dCMP, was determined.
The effect of metal salts on the fidelity of DNA synthesis was examined by testing each of the metal salts at a minimum of seven different concentrations.

[1] = known status of the compound; cited from earlier work
[2] = Table 1, template poly (C).oligo (dG), classes 1-3 not defined
[3] = 8 mM K2 HPO4, template in drawing 4
[4] = 16 mM K2 HPO4, template in drawing 4
[5] = 32 mM K2 HPO4, template in drawing 4
[6] = 40 mM K2 HPO4, template in drawing 4
[7] = Table 1, template poly [d(A-T)], classes 1-3 not defined
[8] = 4 mM MgSO4, template in drawing 6
[9] = 6 mM MgSO4, template in drawing 6
[10] = 8 mM MgSO4, template in drawing 6
[11] = 10 mM MgSO4, template in drawing 6
[12] = 4 mM KC2 H3 O2, template in drawing 5
[13] = 20 mM KC2 H3 O2, template in drawing 5
[14] = 40 mM KC2 H3 O2, template in drawing 5
[15] = 80 mM KC2 H3 O2, template in drawing 5

SMILES: [Cl][Mn][Cl] [MnCl2]
- Class (AMV DNA polymerase; [2]): 1
- Metal Concentration which yielded the largest observed change in error rate (AMV DNA polymerase; template poly (C).oligo (dG)): 10 mM
- effect on the fidelity of DNA synthesis (in words) (AMV DNA polymerase; various templates): alter the fidelity

SMILES: O=P([O-])([O-])O.[K+].[K+] [K2 HPO4]
- Carcinogen or Mutagen [1]: -
- Complementary Deoxynucleotide Incorporation (AMV DNA polymerase; [3]): 179 pmol
- Error Frequency (AMV DNA polymerase; [3]): 1/814
- Non-complementary Deoxynucleotide Incorporation (AMV DNA polymerase; [3]): 0.22 pmol
- Complementary Deoxynucleotide Incorporation (AMV DNA polymerase; [4]): 180 pmol
- Error Frequency (AMV DNA polymerase; [4]): 1/783
- Non-complementary Deoxynucleotide Incorporation (AMV DNA polymerase; [4]): 0.23 pmol
- Complementary Deoxynucleotide Incorporation (AMV DNA polymerase; [5]): 107 pmol
- Error Frequency (AMV DNA polymerase; [5]): 1/823
- Non-complementary Deoxynucleotide Incorporation (AMV DNA polymerase; [5]): 0.13 pmol
- Complementary Deoxynucleotide Incorporation (AMV DNA polymerase; [6]): 48 pmol
- Error Frequency (AMV DNA polymerase; [6]): 1/960
- Non-complementary Deoxynucleotide Incorporation (AMV DNA polymerase; [6]): 0.05 pmol
- Class (AMV DNA polymerase; [7]): 2
- Class (AMV DNA polymerase; Table 2, classes not defined): 2
- Metal Concentration which yielded the largest observed change in error rate (AMV DNA polymerase; template poly [d(A-T)]): 40 mM

SMILES: O=S(=O)([O-])[O-].[Mg+2] [MgSO4]
- Carcinogen or Mutagen [1]: -
- Complementary Deoxynucleotide Incorporation (AMV DNA polymerase; [8]): 299 pmol
- Error Frequency (AMV DNA polymerase; [8]): 1/598
- Non-complementary Deoxynucleotide Incorporation (AMV DNA polymerase; [8]): 0.50 pmol
- Complementary Deoxynucleotide Incorporation (AMV DNA polymerase; [9]): 398 pmol
- Error Frequency (AMV DNA polymerase; [9]): 1/632
- Non-complementary Deoxynucleotide Incorporation (AMV DNA polymerase; [9]): 0.63 pmol
- Complementary Deoxynucleotide Incorporation (AMV DNA polymerase; [10]): 349 pmol
- Error Frequency (AMV DNA polymerase; [10]): 1/635
- Non-complementary Deoxynucleotide Incorporation (AMV DNA polymerase; [10]): 0.55 pmol
- Complementary Deoxynucleotide Incorporation (AMV DNA polymerase; [11]): 360 pmol
- Error Frequency (AMV DNA polymerase; [11]): 1/621
- Non-complementary Deoxynucleotide Incorporation (AMV DNA polymerase; [11]): 0.58 pmol
- Class (AMV DNA polymerase; [2]): 3
- Class (AMV DNA polymerase; Table 2, classes not defined): 3
- Metal Concentration which yielded the largest observed change in error rate (AMV DNA polymerase; template poly (C).oligo (dG)): 10 mM

SMILES: [Na+].[OH-] [NaOH]
- Carcinogen or Mutagen [1]: -
- Class (AMV DNA polymerase; [7]): 3
- Metal Concentration which yielded the largest observed change in error rate (AMV DNA polymerase; template poly [d(A-T)]): 10 mM

SMILES: [Cl-].[Cl-].[Zn+2] [ZnCl2]
- Carcinogen or Mutagen [1]: ±
- Class (AMV DNA polymerase; [7]): 2
- Metal Concentration which yielded the largest observed change in error rate (AMV DNA polymerase; template poly [d(A-T)]): 0.4 mM

SMILES: CC(=O)[O-].[K+] [KC2 H2 O2]
- Carcinogen or Mutagen [1]: -
- Complementary Deoxynucleotide Incorporation (AMV DNA polymerase; [12]): 484 pmol
- Error Frequency (AMV DNA polymerase; [12]): 1/733
- Non-complementary Deoxynucleotide Incorporation (AMV DNA polymerase; [12]): 0.66 pmol
- Complementary Deoxynucleotide Incorporation (AMV DNA polymerase; [13]): 423 pmol
- Error Frequency (AMV DNA polymerase; [13]): 1/755
- Non-complementary Deoxynucleotide Incorporation (AMV DNA polymerase; [13]): 0.56 pmol
- Complementary Deoxynucleotide Incorporation (AMV DNA polymerase; [14]): 378 pmol
- Error Frequency (AMV DNA polymerase; [14]): 1/741
- Non-complementary Deoxynucleotide Incorporation (AMV DNA polymerase; [14]): 0.51 pmol
- Complementary Deoxynucleotide Incorporation (AMV DNA polymerase; [15]): 379 pmol
- Error Frequency (AMV DNA polymerase; [15]): 1/743
- Non-complementary Deoxynucleotide Incorporation (AMV DNA polymerase; [15]): 0.51 pmol
- Class (AMV DNA polymerase; [2]): 3
- Class (AMV DNA polymerase; Table 2, classes not defined): 3
- Metal Concentration which yielded the largest observed change in error rate (AMV DNA polymerase; template poly (C).oligo (dG)): 100 mM

SMILES: CC(=O)[O-].CC(=O)[O-].[Cu+2] [Cu(C2 H3 O2)2]
- Carcinogen or Mutagen [1]: ±
- Class (AMV DNA polymerase; [2]): 1
- Metal Concentration which yielded the largest observed change in error rate (AMV DNA polymerase; template poly (C).oligo (dG)): 0.12 mM

SMILES: [Cl][Fe][Cl] [FeCl2]
- Carcinogen or Mutagen [1]: ±
- Class (AMV DNA polymerase; [2]): 2
- Metal Concentration which yielded the largest observed change in error rate (AMV DNA polymerase; template poly (C).oligo (dG)): 4 mM

SMILES: CC(=O)[O-].CC(=O)[O-].[Cd+2] [Cd(C2 H3 O2)2]
- Carcinogen or Mutagen [1]: +
- Class (AMV DNA polymerase; [2]): 1
- Metal Concentration which yielded the largest observed change in error rate (AMV DNA polymerase; template poly (C).oligo (dG)): 0.24 mM

SMILES: [Cl][Pb][Cl] [PbCl2]
- Carcinogen or Mutagen [1]: +
- Class (AMV DNA polymerase; [2]): 1
- Metal Concentration which yielded the largest observed change in error rate (AMV DNA polymerase; template poly (C).oligo (dG)): 4 mM

SMILES: CC1=C(/C=C/C(C)=C/C=C/C(C)=C/CO)C(C)(C)CCC1 [retinol]
- effect on the fidelity of DNA synthesis (in words) (AMV DNA polymerase; 0.2-2μg, poly (A).oligo (dT)): did not alter the fidelity of DNA synthesis

SMILES: O=[N+]([O-])[O-].[Ag+] [AgNO3]
- Carcinogen or Mutagen [1]: +
- Class (AMV DNA polymerase; [7]): 1
- Metal Concentration which yielded the largest observed change in error rate (AMV DNA polymerase; template poly [d(A-T)]): 0.03 mM
